Assay results published in article PMC12361428 (Nature Communications, 2025).
Changes are numbered by the printed parent chain. Where “and” joins values, the source holds several entries; their conditions need not be identical. Identical values can stand only once. Entries after “also recorded” stand apart in the source; their conditions may differ.

Columns and labels:
[1] = biological target: T1, A3AR WT (Homo sapiens, UniProt P0DMS8); test: Gαi1 activation, TruPath BRET assay in HEK293a cells; type: cell-based
T1 construct: expressed in transfected cells; host or cells: HEK293a
T1 sequence (P0DMS8 1-318): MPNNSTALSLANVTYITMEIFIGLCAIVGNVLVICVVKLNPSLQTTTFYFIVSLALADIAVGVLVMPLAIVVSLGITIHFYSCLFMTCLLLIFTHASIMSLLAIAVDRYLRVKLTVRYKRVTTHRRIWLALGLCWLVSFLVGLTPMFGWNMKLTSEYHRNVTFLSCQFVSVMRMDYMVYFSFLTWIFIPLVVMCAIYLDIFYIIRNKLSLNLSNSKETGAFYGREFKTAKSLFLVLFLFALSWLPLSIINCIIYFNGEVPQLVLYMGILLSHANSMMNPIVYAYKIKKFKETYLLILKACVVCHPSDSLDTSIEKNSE
Description: (§1) PEI was added at a 6:1 PEI-to-DNA ratio. Two days post-transfection, plates were washed twice with BRET buffer (HBSS with 10 mM HEPES, pH 7.4). After a 30-min incubation at 37 °C, plates were placed in a PHERAstar plate reader at 37 °C, and four baseline readings were taken using BRET2 filters at 410 ± 80 nm and 515 ± 30 nm. […] BRET2 ratios were calculated as the ratio of GFP2 emission (515 ± 30 nm) to RLuc8 emission (410 ± 80 nm).
(§2) Data were expressed as the mean ± standard error. All binding and Trupath data were analysed using the nonlinear regression curve-fitting programme with Prism 10 (GraphPad, San Diego, CA, USA). For nanoBRET saturation binding experiments, specific binding was calculated by subtracting non-specific binding (defined as binding in the presence of 10 µM MRS1220) from total binding. Specific binding data in each experiment were then normalised to the maximal binding (Bmax) of WT and fit to a one-site specific binding equation: Y =Bmax*[X]/(Kd + [X]). For nanoBRET competition binding experiments, data were normalised to total and non-specific binding responses and fit to a one-site—Fit Ki equation. Trupath's experimental data was baseline-corrected to the initial four baseline reads and then adjusted to the buffer control response. The area under the curve (AUC) for each response was calculated and plotted with a non-linear regression curve (log[agonist] vs response, three-parameter model), using the equation: Y = Bottom + (Top–Bottom)/(1 + 10^((LogEC50-X))). Here, X represents the log dose of the agonist, Y is the BRET2 AUC response, Top and Bottom are the curve plateaus, and EC50 is the agonist concentration yielding a response halfway between the Bottom and Top values. To determine efficacy values. The efficacy of the agonists (τA) was separately calculated using the Black–Leff operational model of agonism[79] using KA values from Table 2 and then corrected for receptor expression relative to WT using Bmax values from Table 1[80]. Significant differences vs WT were determined by one-way ANOVA with a Dunnett’s multiple comparison test. Significance levels are indicated as follows: P ≤ 0.0001****, P = 0.0001–0.001***, P = 0.001–0.01**, and P = 0.01–0.05*.

[2] = biological target: T2, A3AR H95F^3.37 (Homo sapiens, UniProt P0DMS8, H95F); test: as above; type: cell-based
T2 construct: expressed in transfected cells; host or cells: HEK293a
T2 sequence (P0DMS8 1-318 H95F): T1 sequence (P0DMS8 1-318) with H95F
Description: as §1, §2

[3] = biological target: A3AR H95A^3.37 (Homo sapiens, UniProt P0DMS8, H95A); test: as above
Description: Two days post-transfection, plates were washed twice with BRET buffer (HBSS with 10 mM HEPES, pH 7.4). After a 30-min incubation at 37 °C, plates were placed in a PHERAstar plate reader at 37 °C, and four baseline readings were taken using BRET2 filters at 410 ± 80 nm and 515 ± 30 nm. […] BRET2 ratios were calculated as the ratio of GFP2 emission (515 ± 30 nm) to RLuc8 emission (410 ± 80 nm).
Data were expressed as the mean ± standard error. All binding and Trupath data were analysed using the nonlinear regression curve-fitting programme with Prism 10 (GraphPad, San Diego, CA, USA). […] Trupath's experimental data was baseline-corrected to the initial four baseline reads and then adjusted to the buffer control response. The area under the curve (AUC) for each response was calculated and plotted with a non-linear regression curve (log[agonist] vs response, three-parameter model), using the equation: Y = Bottom + (Top–Bottom)/(1 + 10^((LogEC50-X))). Here, X represents the log dose of the agonist, Y is the BRET2 AUC response, Top and Bottom are the curve plateaus, and EC50 is the agonist concentration yielding a response halfway between the Bottom and Top values. […] Significant differences vs WT were determined by one-way ANOVA with a Dunnett’s multiple comparison test.

[4] = biological target: T3, A3AR Y265A^7.36 (Homo sapiens, UniProt P0DMS8, Y265A); test: as above; type: cell-based
T3 construct: expressed in transfected cells; host or cells: HEK293a
Description: (§3) PEI was added at a 6:1 PEI-to-DNA ratio.
(§4) Data were expressed as the mean ± standard error. All binding and Trupath data were analysed using the nonlinear regression curve-fitting programme with Prism 10 (GraphPad, San Diego, CA, USA). For nanoBRET saturation binding experiments, specific binding was calculated by subtracting non-specific binding (defined as binding in the presence of 10 µM MRS1220) from total binding. Specific binding data in each experiment were then normalised to the maximal binding (Bmax) of WT and fit to a one-site specific binding equation: Y =Bmax*[X]/(Kd + [X]). For nanoBRET competition binding experiments, data were normalised to total and non-specific binding responses and fit to a one-site—Fit Ki equation. Trupath's experimental data was baseline-corrected to the initial four baseline reads and then adjusted to the buffer control response. The area under the curve (AUC) for each response was calculated and plotted with a non-linear regression curve (log[agonist] vs response, three-parameter model), using the equation: Y = Bottom + (Top–Bottom)/(1 + 10^((LogEC50-X))). […] Significant differences vs WT were determined by one-way ANOVA with a Dunnett’s multiple comparison test. […]

[5] = biological target: T4, A3AR N250A^6.55 (Homo sapiens, UniProt P0DMS8, N250A); test: as above; type: cell-based
T4 construct: expressed in transfected cells; host or cells: HEK293a
T4 sequence (P0DMS8 1-318 N250A): T1 sequence (P0DMS8 1-318) with N250A
Description: as §1, §2

[6] = biological target: T5, A3AR T94A^3.36 (Homo sapiens, UniProt P0DMS8, T94A); test: as above; type: cell-based
T5 construct: expressed in transfected cells; host or cells: HEK293a
Description: as §3, §4

[7] = biological target: T6, A3AR-BRIL (Homo sapiens, UniProt P0DMS8); test: NanoBRET competition binding vs XAC-630; details: for XAC-630 NanoBRET binding, normalised (Figure S2H), individual replicates: A3AR-BRIL
T6 sequence (P0DMS8 1-318): T1 sequence (P0DMS8 1-318)
Description: All experiments were performed in duplicate.
Data were expressed as the mean ± standard error. All binding and Trupath data were analysed using the nonlinear regression curve-fitting programme with Prism 10 (GraphPad, San Diego, CA, USA). For nanoBRET saturation binding experiments, specific binding was calculated by subtracting non-specific binding (defined as binding in the presence of 10 µM MRS1220) from total binding. Specific binding data in each experiment were then normalised to the maximal binding (Bmax) of WT and fit to a one-site specific binding equation: Y =Bmax*[X]/(Kd + [X]). For nanoBRET competition binding experiments, data were normalised to total and non-specific binding responses and fit to a one-site—Fit Ki equation. […] Significant differences vs WT were determined by one-way ANOVA with a Dunnett’s multiple comparison test.

[8] = biological target: T7, A3AR-BRIL-S97R (Homo sapiens, UniProt P0DMS8, N160A/S97R, form not given); test: NanoBRET competition binding vs XAC-630; details: for XAC-630 NanoBRET binding, normalised (Figure S2H), individual replicates: A3AR-BRIL-S97R
T7 sequence (P0DMS8 1-318 S97R/N160A): T1 sequence (P0DMS8 1-318) with S97R, N160A

[9] = system: Nluc-tagged hA3AR-BRIL-S97R; test: NanoBRET washout (irreversible binding) assay vs XAC-630

Chain of A3AR H95A^3.37 (P0DMS8 whole entry H95A): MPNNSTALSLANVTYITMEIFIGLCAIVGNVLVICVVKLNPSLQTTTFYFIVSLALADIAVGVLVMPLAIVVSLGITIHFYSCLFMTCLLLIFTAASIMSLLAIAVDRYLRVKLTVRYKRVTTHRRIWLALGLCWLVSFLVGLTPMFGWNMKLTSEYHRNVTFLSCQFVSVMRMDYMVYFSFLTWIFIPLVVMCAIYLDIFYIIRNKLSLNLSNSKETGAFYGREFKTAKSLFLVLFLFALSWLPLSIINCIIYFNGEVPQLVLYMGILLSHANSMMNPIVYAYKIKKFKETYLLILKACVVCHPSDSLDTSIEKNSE
T5 sequence (P0DMS8 whole entry T94A): as the sequence (P0DMS8 whole entry H95A) above, with T94A, A95H counted along it
T3 sequence (P0DMS8 whole entry Y265A): as the sequence (P0DMS8 whole entry H95A) above, with A95H, Y265A counted along it

Nc1ncnc2c1ncn2[C@@H]1O[C@H](CO)[C@@H](O)[C@H]1O [Adenosine, adenosine]
log τ (efficacy, operational model, corrected for receptor expression) [1]: 1.6 ± 0.2 | ∆∆BRET Emax [1]: 0.89 ± 0.08 | Gαi1 activation response (Figure 7F), individual replicates ([1]; log [agonist] -3): 1.106 and 0.8834 and 0.9675 | Gαi1 activation response (Figure 7F), individual replicates ([1]; log [agonist] -4): 0.9524 and 0.7958 and 0.9068 | Gαi1 activation response (Figure 7F), individual replicates ([1]; log [agonist] -5): 0.9676 and 0.6508 and 0.8035 | Gαi1 activation response (Figure 7F), individual replicates ([1]; log [agonist] -6): 0.8382 and 0.5159 and 0.6976 | Gαi1 activation response (Figure 7F), individual replicates ([1]; log [agonist] -7): 0.312 and 0.3966 and 0.3849 | Gαi1 activation response (Figure 7F), individual replicates ([1]; log [agonist] -8): 0.0509 and 0.08839 and 0.07483 | Gαi1 activation response (Figure 7F), individual replicates ([1]; log [agonist] -9): 0.1 and 0.05123 and 0.04435 | log τ (efficacy, operational model, corrected for receptor expression) [2]: N.R. | ∆∆BRET Emax [2]: N.R | Gαi1 activation response (Figure 7F), individual replicates ([2]; log [agonist] -3): 0.03876 and 0.1313 and 0.08684 | Gαi1 activation response (Figure 7F), individual replicates ([2]; log [agonist] -4): 0.03491 and 0.05099 and 0.06294 | Gαi1 activation response (Figure 7F), individual replicates ([2]; log [agonist] -5): 0.01638 and 0.04515 and 0.03044 | Gαi1 activation response (Figure 7F), individual replicates ([2]; log [agonist] -6): 0.01795 and 0.02273 and 0.02037 | Gαi1 activation response (Figure 7F), individual replicates ([2]; log [agonist] -7): 0.02917 and 0.01651 and 0.04473 | Gαi1 activation response (Figure 7F), individual replicates ([2]; log [agonist] -8): 0.01844 and 0.06153 and 0.04217 | Gαi1 activation response (Figure 7F), individual replicates ([2]; log [agonist] -9): 0.02564 and 0.03775 and 0.0773 | log τ (efficacy, operational model, corrected for receptor expression) [3]: 0.3 ± 0.3 | ∆∆BRET Emax [3]: 0.63 ± 0.12 | log τ (efficacy, operational model, corrected for receptor expression) [4]: 1.4 ± 0.07 | ∆∆BRET Emax [4]: 1.25 ± 0.04 | log τ (efficacy, operational model, corrected for receptor expression) [5]: N.R. | ∆∆BRET Emax [5]: N.R | Gαi1 activation response (Figure 7F), individual replicates ([5]; log [agonist] -3): 0.1982 and 0.05834 and 0.1787 | Gαi1 activation response (Figure 7F), individual replicates ([5]; log [agonist] -4): 0.07983 and 0.02674 and 0.09536 | Gαi1 activation response (Figure 7F), individual replicates ([5]; log [agonist] -6): 0.1133 and 0.01975 | Gαi1 activation response (Figure 7F), individual replicates ([5]; log [agonist] -7): 0.04263 and 0.06697 and 0.05413 | Gαi1 activation response (Figure 7F), individual replicates ([5]; log [agonist] -8): 0.04211 and 0.09403 and 0.02948 | Gαi1 activation response (Figure 7F), individual replicates ([5]; log [agonist] -9): 0.09604 and 0.06365 and 0.0751 | log τ (efficacy, operational model, corrected for receptor expression) [6]: 0.8 ± 0.09 | ∆∆BRET Emax [6]: 0.49 ± 0.04

CCCn1c(=O)c2c(nc3cc(OC)ccn32)n(CCCCNC(=O)c2ccc(S(=O)(=O)F)cc2)c1=O [LUF7602]
pKi Mean (Figure S2H) ([7]; BRIL, n 3): 6.94 | XAC-630 NanoBRET binding, normalised (Figure S2H), individual replicates ([7]; log LUF7602 -5): 0 | XAC-630 NanoBRET binding, normalised (Figure S2H), individual replicates ([7]; log LUF7602 -6): 22.1463 and 17.4094 and 21.7431 | XAC-630 NanoBRET binding, normalised (Figure S2H), individual replicates ([7]; log LUF7602 -7): 61.493 and 91.0533 and 82.952 | XAC-630 NanoBRET binding, normalised (Figure S2H), individual replicates ([7]; log LUF7602 -8): 66.0931 and 109.671 and 102.784 | XAC-630 NanoBRET binding, normalised (Figure S2H), individual replicates ([7]; log LUF7602 -9): 71.5361 and 107.819 and 104.301 | XAC-630 NanoBRET binding, normalised (Figure S2H), individual replicates ([7]; log LUF7602 -10): 72.9226 and 106.236 and 100.479 | pKi Mean (Figure S2H) ([8]; BRIL-S97R, n 3): 7.024 | XAC-630 NanoBRET binding, normalised (Figure S2H), individual replicates ([8]; log LUF7602 -5): 0 | XAC-630 NanoBRET binding, normalised (Figure S2H), individual replicates ([8]; log LUF7602 -6): 19.3899 and 25.983 and 15.2236 | XAC-630 NanoBRET binding, normalised (Figure S2H), individual replicates ([8]; log LUF7602 -7): 80.7723 and 57.132 and 87.3086 | XAC-630 NanoBRET binding, normalised (Figure S2H), individual replicates ([8]; log LUF7602 -8): 99.2468 and 73.5169 and 111.113 | XAC-630 NanoBRET binding, normalised (Figure S2H), individual replicates ([8]; log LUF7602 -9): 98.8814 and 81.6512 and 110.04 | XAC-630 NanoBRET binding, normalised (Figure S2H), individual replicates ([8]; log LUF7602 -10): 102.286 and 79.8771 and 109.058 | inhibition of XAC-630 binding after 4x washout ([9]; 10 μM, 4 h, 4 washing steps): wash-resistant inhibition; also recorded: retained inhibition | rebinding of XAC-630 in the washout experiments ([9]; 10 μM, 4 h, 4 washing steps): ~ 15% | NanoBRET washout assay, normalised signal (Figure S2G), individual replicates ([9]; 4 x Wash): 12.3969 and 12.724 and 15.9645 and 7.178 | NanoBRET washout assay, normalised signal (Figure S2G), individual replicates ([9]; Control (no wash)): 1.693 and 0.891 and -0.3357 and 2.202
